Measurements from patent US8940781B2, “Pesticidal composition and its use” (Sumitomo Chemical Company, Limited, priority 2010, dated 2015).

Tested on: Rhizoctonia solani
Assay: Soybean seed treatment test in soil contaminated by Rhizoctonia solani (disease control efficacy)
Format: in vivo, Rhizoctonia solani on soybean (variety: Natto shoryu)
Conditions: seed treatment of soybean; carboxamide compound alone 0.2 g/100 kg of seeds; cultivated 20 days in contaminated soil; versus non-treated plot
Method: A cyclohexanone solution (100 microL) containing prescribed amount (weight) of a test compound was applied on seeds of soybean (variety: Natto shoryu) (10 g) by using a rotary apparatus for seed treatment (Seed dresser, manufactured by Hans-Ulrich Hege GmbH).
One day after the application, plastic pot was filled with soil contaminated by Rhizoctonia solani, and the seeds treated with the test compounds were seeded in the soil and cultivated in a glass-greenhouse for 20 days (hereinafter referred to as “treated plot”).
Thereafter, the presence of disease caused by Rhizoctonia solani in the young plants which germinated from each seed was observed and disease severity was calculated according to the following calculation formula (1).
On the other hand, seeds of soybean which were not treated as above were cultivated in the same way as above (hereinafter referred to as “non-treated plot”) and the disease severity in the “non-treated plot” was calculated in the same way as the above “treated plot”. On the basis of the above disease severity in “treated plot” and “non-treated plot”, efficacy in “treated plot” was evaluated according to the following calculation formula (2). […]

SMILES | efficacy (%)
CC1CC(C)(C)c2cccc(NC(=O)c3cn(C)nc3C(F)F)c21 (centres unmarked) [carboxamide compound (1)] | 47.4%
Cc1nn(C)c(C)c1C(=O)Nc1cccc2c1C(C)CC2(C)C (centres unmarked) [carboxamide compound (5)] | 15.8%
